Converted amounts (≈) assume the structure as drawn. Where two headings read alike, the source gives them in different places.
Tests used:
Str. pyogenes A9604 = assay: Antibiotic activity in nutrient broth (MIC); assay type: cell-based; conditions: Streptococcus pyogenes, A9604, inoculum 10^-3; 45% AAB + 5% serum + 50% broth; derivatives adjusted for BL-S640 content; read-out: MIC
Text: (§1) Antibiotic Activity In Nutrient Broth
(§2) * 45% AAB+ 5% serum+ 50% broth listed above.
(§3) ** Dilution of overnight broth culture.
(§4) Antibiotic Spectrum Nutrient Broth
(§5) * 45% AAB + 5% serum + 50% broth
(§6) Antibiotic Spectrum in Nutrient Broth
(§7) *45% AAB + 5% serum + 50% broth listed above.

Str. pneumoniae A9585 = assay: Antibiotic activity in nutrient broth (MIC); assay type: cell-based; conditions: Streptococcus pneumoniae, A9585, inoculum 10^-3 dilution of overnight broth culture; 45% AAB + 5% serum + 50% broth; derivatives adjusted for BL-S640 content
Text: as §1, §2, §3, §4, §5, §6, §7

[1] = Mouse blood levels after intramuscular administration; assay type: in vivo; conditions: mouse, blood, im, 10 mg/kg, Example 3, IM 10 mg./kg., average of 3 experiments, read-out: Blood Levels
Description: Mouse Blood Levels After Intramuscular Administration
of 10 mg./kg. Body Weight
The compounds were dissolved in 0.01% phosphate buffer.
Mouse Blood Levels After IM
Administration of 10 mg./kg. Body Weight
The compounds were prepared in 0.01% phosphate
(§8) The compounds were prepared in 0.01% phosphate buffer.

Pr. mirabilis A9900 = assay: Antibiotic activity in nutrient broth (MIC); assay type: cell-based; conditions: Proteus mirabilis, inoculum 10^-4, derivatives adjusted for BL-S640 content
Text: as §1, §3, §4, §6

S. aureus BX1633 A9606 = assay: Antibiotic activity in nutrient broth (MIC); assay type: cell-based; conditions: Staphylococcus aureus, derivatives adjusted for BL-S640 content, read-out: MIC
Text: as §1, §3, §4, §6

Ent. cloacae A9659 = assay: Antibiotic activity in nutrient broth (MIC); assay type: cell-based; conditions: Enterobacter cloacae, A9659, inoculum 10^-4; derivatives adjusted for BL-S640 content; read-out: MIC
Text: as §1, §3, §4, §6

S. aureus Smith A9537 = assay: Antibiotic activity in nutrient broth (MIC); assay type: cell-based; conditions: Staphylococcus aureus, SMITHA9537, inoculum 10^-4, derivatives adjusted for BL-S640 content, read-out: MIC
Text: as §1, §3, §4, §6

E. coli Juhl A15119 = assay: Antibiotic activity in nutrient broth (MIC); assay type: cell-based; conditions: Escherichia coli, JUHLA15119, inoculum 10^-4; derivatives adjusted for BL-S640 content; read-out: MIC
Text: as §1, §3, §4, §6

[2] = test system: S. aureus Meth-Res A15097; assay: Antibiotic activity in nutrient broth (MIC); assay type: cell-based; conditions: Staphylococcus aureus, inoculum 10^-3; Meth-Res; derivatives adjusted for BL-S640 content; read-out: MIC
Text: as §1, §3, §4, §6

Ser. marcescens A20019 = assay: Antibiotic activity in nutrient broth (MIC); assay type: cell-based; conditions: Serratia marcescens, A20019, inoculum 10^-4; derivatives adjusted for BL-S640 content
Text: as §1, §3, §4, §6

Ps. aeruginosa A9843A = assay: Antibiotic activity in nutrient broth (MIC); assay type: cell-based; conditions: Pseudomonas aeruginosa
Text: as §1, §3, §4, §6

P. mirabilis A9900 [3] = assay: IM PD50 in mice; assay type: in vivo; conditions: Proteus mirabilis
Text: Comparative IM PD50 Values of
(§9) BL-S640 Derivatives in Mice

[4] = Mouse blood levels after oral administration; assay type: in vivo; conditions: mouse, blood, po, 100 mg/kg, Example 3, PO 100 mg./kg., Tween-CMC, average of two experiments, read-out: Blood Levels
Description: Mouse Blood Levels After Oral
Administration Of 100 mg./kg. Body Weight
The compounds were prepared in
Tween - carboxymethylcellulose
and 8 mice were used for each
Mouse Blood Levels After PO
Administration of 100 mg./kg. Body Weight
The compounds were prepared in Tween-CMC. BL-S640
The compounds were prepared in Tween-CMC. Values are the average of two

S. pyogenes A9604 = assay: Oral PD50 in mice; assay type: in vivo; conditions: Streptococcus pyogenes, mice treated at 1 and 3.5 hours post-challenge
Description: (§10) Comparative Oral PD50 Values of
as §9
(§11) *Mice were treated at 1 and 3.5 hours post-challenge.

E. coli A15119 = assay: Oral PD50 in mice; assay type: in vivo; conditions: oral, mice treated at 1 and 3.5 hours post-challenge
Description: as §10, §9, §11

K. pneumoniae A9977 = assay: Oral PD50 in mice; assay type: in vivo; conditions: Klebsiella pneumoniae, A9977; oral; mice treated at 1 and 3.5 hours post-challenge; read-out: PD50
Description: as §10, §9, §11

P. mirabilis A9707 = assay: Oral PD50 in mice; assay type: in vivo; conditions: Proteus mirabilis, mice treated at 1 and 3.5 hours post-challenge
Description: as §10, §9, §11

P. mirabilis A9900 [5] = assay: Oral PD50 in mice; assay type: in vivo; conditions: Proteus mirabilis, A9900, po, 3.5 h, oral; mice treated at 1 and 3.5 hours post-challenge; read-out: PD50
[6] = Urinary recovery after IM administration to rats; assay type: in vivo; conditions: rat, urine, 50 mg/kg, IM 50 mg./kg., read-out: Urinary Recovery, Percentage of Administered Dose Recovered
Description: Urinary Recovery After IM
Administration of 50 and 10 mg./kg. to Rats
The compounds were prepared in 0.01% phosphate buffer. BL-S640 was used as
Urinary Recovery after IM
Administration of 50 mg./kg. to Rats
as §8

[7] = Paper chromatography of rat urine for antibiotically active metabolites; assay type: in vivo; conditions: IM; rat urine 0-2 and 2-4 hours
Description: Paper chromatograms were run on rat urine collected between 0 and 2 and between 2 and 4 hours following IM administration of BL-S1055 and 640, for the detection of antibiotically active metabolites using descending chromatography with system No. 9 (butyl acetate:n-butanol:glacial acetic acid:H2 O= 80:15:40:24).

[8] = 0 min

Question: What does the source list for `O=C(O)C1=C(CSc2cnn[nH]2)CS[C@@H]2[C@H](N3C(=O)[C@@H](c4ccc(O)cc4)NC3c3ccccc3S(=O)(=O)O)C(=O)N12` (some centres unmarked) [BL-S1055]?
Answer: MIC (Str. pyogenes A9604): 0.016 µg/mL; MIC (Str. pneumoniae A9585): 0.06 µg/mL; concentration at 0.25 h ([1]; 0.25 hr): 10300 ng/mL; concentration at 0.5 h ([1]; 0.5 hr): 9900 ng/mL; concentration at 1 h ([1]; 1 hr): 7600 ng/mL; concentration at 1.5 h ([1]; 1.5 hr): 6500 ng/mL; MIC (Pr. mirabilis A9900): 0.5 µg/mL (≈ 0.793 µM); MIC (S. aureus BX1633 A9606; BX1633A9606, inoculum 10^-2): 2 µg/mL (≈ 3.17 µM); MIC (S. aureus BX1633 A9606; BX1633A9606, inoculum 10^-3): 0.5 µg/mL (≈ 0.793 µM); MIC (Ent. cloacae A9659): 63 µg/mL (≈ 99.9 µM); MIC (S. aureus Smith A9537; + 50% serum): 2 µg/mL; MIC (S. aureus Smith A9537; nutrient broth): 0.13 µg/mL (≈ 0.206 µM); MIC (E. coli Juhl A15119): 1 µg/mL (≈ 1.59 µM); MIC [2]: 4 µg/mL (≈ 6.34 µM); MIC (Ser. marcescens A20019): 125 µg/mL (≈ 198 µM); MIC (Ps. aeruginosa A9843A): > 125 µg/mL; ED50 (P. mirabilis A9900 [3]): 1.6 mg/kg; concentration at 0.5 h ([4]; 0.5 hr): 38200 ng/mL; concentration at 1 h ([4]; 1 hr): 35700 ng/mL; concentration at 2 h ([4]; 2 hr): 22000 ng/mL; concentration at 3.5 h ([4]; 3.5 hr): 11300 ng/mL; ED50 (S. pyogenes A9604): 0.4 mg/kg; ED50 (E. coli A15119; Escherichia coli, A15119, po, 3.5 h, read-out: PD50): 1.8 mg/kg; PD50 (E. coli A15119): 1.6 mg./kg./treatment; ED50 (K. pneumoniae A9977): 1.6 mg/kg; ED50 (P. mirabilis A9707): 1 mg/kg; ED50 (P. mirabilis A9900 [5]): 8.2 mg/kg; dose excreted at 6 h ([6]; 0-6 hr): 36.6%; dose excreted at 24 h ([6]; 0-24 hr): 39%; dose excreted at 24 h ([6]; 6-24 hr): 2.4%; Hydrolysis to the parent compound (BL-S640) [7]: complete hydrolysis; % Free BL-S640 by liquid chromatography [8]: 64.0%

— patent publication US4026888A, “Certain derivatives of particular 3-thiolated cephalosporins” (priority 1976, dated 1977)
